Source: the NIST ThermoML archive (doi:10.1016/j.jct.2018.08.036)
“And” between values parts separate entries of the source, which are not always exact repeats. Identical values can stand only once.

How the values were obtained:
[1] = 100 kPa, Liquid; for speed of sound: Frequency=3 MHz, Single path-length method; for mass density: Vibrating tube method; for viscosity: Falling or rolling sphere viscometry
[2] = refractive index (Na D-line) (dimensionless); conditions: 100 kPa, Liquid, Standard Abbe refractometry
[3] = refractive index (Na D-line) (dimensionless); xn = mol fraction of the nth substance listed; conditions: 100 kPa, Liquid, Standard Abbe refractometry, x1 = 1
[4] = xn = mol fraction of the nth substance listed; conditions: 100 kPa, Liquid, x1 = 1; for viscosity: Falling or rolling sphere viscometry; for speed of sound: Frequency=3 MHz, Single path-length method; for mass density: Vibrating tube method

CCC(C)c1ccccc1 (centres undefined) [(1-methylpropyl)benzene]
Conditions	mass density, [1] [kg/m3]	refractive index, [2]	speed of sound, [1] [m/s]	viscosity, [1] [mPa·s]
293.15 K	861.95	1.49	1333.8	–
298.15 K	857.89	1.4876	1313.8	0.912
308.15 K	849.78	1.4827	1274.5	0.796
318.15 K	841.64	1.4778	1235.7	0.707
323.15 K	837.48	1.4753	1216.1	–

CCCCCCCCCCCCCCCC [hexadecane]
Conditions	mass density, [1]	refractive index, [2]	speed of sound, [1]	viscosity, [1]
293.15 K	773.33 kg/m3	1.4345	1357.5 m/s	3.341 mPa·s
298.15 K	769.86 kg/m3 and 769.81 kg/m3	1.4324	1338.6 m/s and 1338.5 m/s	2.968 mPa·s and 3.035 mPa·s
303.15 K	766.4 kg/m3	1.4304	1319.9 m/s	2.656 mPa·s
308.15 K	762.94 kg/m3 and 762.89 kg/m3	1.4283	1301.3 m/s and 1301.2 m/s	2.389 mPa·s and 2.439 mPa·s
313.15 K	759.48 kg/m3	1.4261	1282.9 m/s	2.164 mPa·s
318.15 K	755.99 kg/m3 and 755.98 kg/m3	1.4241	1264.6 m/s and 1264.7 m/s	1.971 mPa·s and 2.008 mPa·s
323.15 K	752.58 kg/m3	1.422	1246.6 m/s	1.8 mPa·s

CCCCCCCCCCCCCCCC [hexadecane] + CCC(C)c1ccccc1
Conditions	mass density, [4] [kg/m3]	refractive index, [3]	speed of sound, [4] [m/s]	viscosity, [4] [mPa·s]
298.15 K	769.81	1.4324	1338.5	3.035
308.15 K	762.89	1.4283	1301.2	2.439
318.15 K	755.98	1.4241	1264.7	2.008

CCCCCCCCCCCCCCCC [hexadecane] + CCCc1ccccc1
Conditions	mass density, [4] [kg/m3]	refractive index, [3]	speed of sound, [4] [m/s]	viscosity, [4] [mPa·s]
298.15 K	769.86	1.4324	1338.6	2.968
308.15 K	762.94	1.4283	1301.3	2.389
318.15 K	755.99	1.4241	1264.6	1.971

CCCc1ccccc1 [propylbenzene]
Conditions	mass density, [1] [kg/m3]	refractive index, [2]	speed of sound, [1] [m/s]	viscosity, [1] [mPa·s]
288.15 K	–	–	–	0.924
293.15 K	862.72	1.4921	1341.5	0.846
298.15 K	858.45	1.4896	1320.6	0.792
303.15 K	854.28	1.487	1300.4	0.742
308.15 K	850.01	1.4844	1280.6	0.699
313.15 K	845.81	1.4818	1260.9	0.655
318.15 K	841.53	1.4792	1241	0.626
323.15 K	837.31	1.4766	1221.5	0.601
